# In patent US10980232B2, “Herbicidal composition comprising cinmethylin and pyroxasulfone” (BASF Agro B.V., priority 2015, dated 2021):
# Columns and labels:
# Format in all cases: in vivo
# [1] = test system: ABUTH (Abutilon theoprasti); experiment: Greenhouse preemergence herbicidal activity, ABUTH; conditions: 20 DAT
# Procedure: (§1) The test plants have been seeded, separately for each species, in plastic containers in sandy loamy soil containing 5% of organic matter.
# (§2) The containers were irrigated gently to promote germination and growth and subsequently covered with transparent plastic hoods until the plants had rooted.
# (§3) The plants have been cultivated due to their individual requirements at 10-25° C. and 20-35° C. The plants were irrigated due to their necessity.
# (§4) The racemic mixture (±)-2-exo-(2-Methylbenzyloxy)-1-methyl-4-isopropyl-7-oxabicyclo[2.2.1]heptane was used as herbicide A and formulated as emulsifiable concentrates with an active ingredient concentration of 50 g/l, 100 g/l or 750 g/l respectively.
# (§5) Pyroxasulfone (herbicide B) was used as a water dispersible granule (85% WG).
# (§6) In the following experiments, the herbicidal activity for the individual herbicidal compositions (solo and mixture applications) was assessed 20 days after treatment (DAT).
# (§7) The evaluation for the damage on undesired weeds caused by the chemical compositions was carried out using a scale from 0 to 100%, compared to the untreated control plants. Here, 0 means no damage and 100 means complete destruction of the plants.
# (§8) E=X+Y−(X·Y/100) where X=effect in percent using herbicide A at an application rate a; • Y=effect in percent using herbicide B at application rate b; • E=expected effect (in %) of herbicide A+herbicide B at application rates a+b.
# (§9) The value E corresponds to the effect (plant damage or injury) which is to be expected if the activity of the individual compounds is additive. If the observed effect is higher than the value E calculated according to the Colby equation, a synergistic effect is present.
# [2] = test system: AMARE (Amaranthus retroflexus); experiment: Greenhouse preemergence herbicidal activity, AMARE; conditions: pyroxasulfone solo 10 g ai/ha, 20 DAT
# Procedure: as §1, §2, §3, §4, §5, §6
# The evaluation for the damage on undesired weeds caused by the chemical compositions was carried out using a scale from 0 to 100%, compared to the untreated control plants. […]
# as §9
# [3] = test system: ANTAR (Anthemis arvensis); experiment: Greenhouse preemergence herbicidal activity, ANTAR; conditions: 20 DAT
# Procedure: as §1, §2, §3, §4, §5, §6, §7, §8, §9
# AVEFA (Avena fatua) [4] = experiment: Greenhouse preemergence herbicidal activity, AVEFA; conditions: 20 DAT
# Procedure: as §1, §2, §3, §4, §5, §6, §7, §8, §9
# [5] = test system: CHEAL (Chenopodium album); experiment: Greenhouse preemergence herbicidal activity, CHEAL; conditions: 20 DAT
# Procedure: as §1, §2, §3, §4, §5, §6, §7, §8, §9
# GALAP (Galium aparine) = experiment: Greenhouse preemergence herbicidal activity, GALAP; conditions: 20 DAT
# Procedure: as §1, §2, §3, §4, §5, §6, §7, §8, §9
# [6] = test system: GERDI (Geranium dissectum); experiment: Greenhouse preemergence herbicidal activity, GERDI; conditions: 20 DAT
# Procedure: as §1, §2, §3, §4, §5, §6, §7, §8, §9
# [7] = test system: LOLMU (Lolium multiflorum); experiment: Greenhouse preemergence herbicidal activity, LOLMU; conditions: 20 DAT
# Procedure: as §1, §2, §3, §4, §5, §6, §7, §8, §9
# [8] = test system: POLCO (Polygonum convolvulus); experiment: Greenhouse preemergence herbicidal activity, POLCO; conditions: 20 DAT
# Procedure: as §1, §2, §3, §4, §5, §6, §7, §8, §9
# STEME (Stellaria media) [9] = experiment: Greenhouse preemergence herbicidal activity, STEME; conditions: 20 DAT
# Procedure: as §1, §2, §3, §4, §5, §6, §7, §8, §9
# [10] = test system: AMARE (Amaranthus retroflexus); experiment: Greenhouse postemergence herbicidal activity, AMARE; conditions: pyroxasulfone solo 45 g ai/ha, 20 DAT
# Procedure: as §1
# (§10) For the post emergence treatment, the plants were first grown to the 2 leaf station (GS 12). Here, the herbicidal compositions were suspended or emulsified in water as distribution medium and sprayed using finely distributing nozzels.
# as §3, §4, §5
# (§11) In the following experiments, the herbicidal activity for the individual herbicidal compositions (solo and mixture applications) was assessed 20 days after treatment (DAT). […]
# as §9
# [11] = test system: ANTAR (Anthemis arvensis); experiment: Greenhouse postemergence herbicidal activity, ANTAR; conditions: 20 DAT
# Procedure: as §1, §10, §3, §4, §5, §6, §7, §8, §9
# AVEFA (Avena fatua) [12] = experiment: Greenhouse postemergence herbicidal activity, AVEFA; conditions: 20 DAT
# Procedure: as §1, §10, §3, §4, §5, §6, §7, §8, §9
# [13] = test system: CHEAL (Chenopodium album); experiment: Greenhouse postemergence herbicidal activity, CHEAL; conditions: 20 DAT
# Procedure: as §1, §10, §3, §4, §5, §6, §7, §8, §9
# [14] = test system: LOLMU (Lolium multiflorum); experiment: Greenhouse postemergence herbicidal activity, LOLMU; conditions: 20 DAT
# Procedure: as §1, §10, §3, §4, §5, §6, §7, §8, §9
# [15] = test system: POLCO (Polygonum convolvulus); experiment: Greenhouse postemergence herbicidal activity, POLCO; conditions: pyroxasulfone solo 45 g ai/ha, 20 DAT
# Procedure: as §1, §10, §3, §4, §5, §11, §9
# [16] = test system: SORHA (Sorghum halepense); experiment: Greenhouse postemergence herbicidal activity, SORHA; conditions: pyroxasulfone solo 11.25 g ai/ha, 20 DAT
# Procedure: as §1, §10, §3, §4, §5, §11, §9
# STEME (Stellaria media) [17] = experiment: Greenhouse postemergence herbicidal activity, STEME; conditions: 20 DAT
# Procedure: as §1, §10, §3, §4, §5, §6, §7, §8, §9
# [18] = pyroxasulfone solo 11.25 g ai/ha
# [19] = pyroxasulfone solo 22.5 g ai/ha
smiles,measurement,setting,value
"Cn1nc(C(F)(F)F)c(CS(=O)(=O)C2=NOC(C)(C)C2)c1OC(F)F [pyroxasulfone, 3-[5-(difluoromethoxy)-1-methyl-3-(trifluoromethyl)pyrazol-4-ylmethylsulfonyl]-4,5-dihydro-5,5-dimethyl-1,2-oxazole]",herbicidal activity,[1]; pyroxasulfone solo 10 g ai/ha,0%
same,herbicidal activity,[1]; pyroxasulfone solo 20 g ai/ha,30%
same,herbicidal activity,[1]; pyroxasulfone solo 30 g ai/ha,50%
same,herbicidal activity,[1]; pyroxasulfone solo 60 g ai/ha,50%
same,herbicidal activity,[1]; pyroxasulfone solo 120 g ai/ha,98%
same,herbicidal activity,[2],95%
same,herbicidal activity,[3]; pyroxasulfone solo 15 g ai/ha,20%
same,herbicidal activity,[3]; pyroxasulfone solo 20 g ai/ha,60%
same,herbicidal activity,[3]; pyroxasulfone solo 30 g ai/ha,85%
same,herbicidal activity,[3]; pyroxasulfone solo 40 g ai/ha,70%
same,herbicidal activity,[3]; pyroxasulfone solo 60 g ai/ha,95%
same,herbicidal activity,[3]; pyroxasulfone solo 80 g ai/ha,75%
same,herbicidal activity,AVEFA (Avena fatua) [4]; pyroxasulfone solo 10 g ai/ha,60%
same,herbicidal activity,AVEFA (Avena fatua) [4]; pyroxasulfone solo 15 g ai/ha,65%
same,herbicidal activity,AVEFA (Avena fatua) [4]; pyroxasulfone solo 20 g ai/ha,75%
same,herbicidal activity,AVEFA (Avena fatua) [4]; pyroxasulfone solo 30 g ai/ha,80%
same,herbicidal activity,AVEFA (Avena fatua) [4]; pyroxasulfone solo 40 g ai/ha,80%
same,herbicidal activity,AVEFA (Avena fatua) [4]; pyroxasulfone solo 60 g ai/ha,95%
same,herbicidal activity,[5]; pyroxasulfone solo 10 g ai/ha,50%
same,herbicidal activity,[5]; pyroxasulfone solo 20 g ai/ha,90%
same,herbicidal activity,GALAP (Galium aparine); pyroxasulfone solo 10 g ai/ha,30%
same,herbicidal activity,GALAP (Galium aparine); pyroxasulfone solo 15 g ai/ha,0%
same,herbicidal activity,GALAP (Galium aparine); pyroxasulfone solo 20 g ai/ha,70%
same,herbicidal activity,GALAP (Galium aparine); pyroxasulfone solo 80 g ai/ha,98%
same,herbicidal activity,[6]; pyroxasulfone solo 30 g ai/ha,75%
same,herbicidal activity,[6]; pyroxasulfone solo 40 g ai/ha,75%
same,herbicidal activity,[7]; pyroxasulfone solo 10 g ai/ha,80%
same,herbicidal activity,[7]; pyroxasulfone solo 15 g ai/ha,98%
same,herbicidal activity,[8]; pyroxasulfone solo 15 g ai/ha,0%
same,herbicidal activity,[8]; pyroxasulfone solo 20 g ai/ha,0%
same,herbicidal activity,[8]; pyroxasulfone solo 30 g ai/ha,20%
same,herbicidal activity,[8]; pyroxasulfone solo 60 g ai/ha,80%
same,herbicidal activity,[8]; pyroxasulfone solo 80 g ai/ha,80%
same,herbicidal activity,[8]; pyroxasulfone solo 120 g ai/ha,90%
same,herbicidal activity,STEME (Stellaria media) [9]; pyroxasulfone solo 10 g ai/ha,75%
same,herbicidal activity,STEME (Stellaria media) [9]; pyroxasulfone solo 15 g ai/ha,98%
same,herbicidal activity,STEME (Stellaria media) [9]; pyroxasulfone solo 30 g ai/ha,98%
same,herbicidal activity,[10],25%
same,herbicidal activity,[11]; pyroxasulfone solo 15 g ai/ha,40%
same,herbicidal activity,[11]; pyroxasulfone solo 60 g ai/ha,90%
same,herbicidal activity,AVEFA (Avena fatua) [12]; [18],50%
same,herbicidal activity,AVEFA (Avena fatua) [12]; [19],50%
same,herbicidal activity,[13]; [18],80%
same,herbicidal activity,[13]; pyroxasulfone solo 15 g ai/ha,85%
same,herbicidal activity,[13]; [19],65%
same,herbicidal activity,[13]; pyroxasulfone solo 45 g ai/ha,85%
same,herbicidal activity,[13]; pyroxasulfone solo 90 g ai/ha,95%
same,herbicidal activity,[13]; pyroxasulfone solo 120 g ai/ha,95%
same,herbicidal activity,[14]; [18],55%
same,herbicidal activity,[14]; pyroxasulfone solo 15 g ai/ha,70%
same,herbicidal activity,[14]; [19],55%
same,herbicidal activity,[15],80%
same,herbicidal activity,[16],70%
same,herbicidal activity,STEME (Stellaria media) [17]; [18],0%
same,herbicidal activity,STEME (Stellaria media) [17]; pyroxasulfone solo 15 g ai/ha,40%
same,herbicidal activity,STEME (Stellaria media) [17]; [19],0%
same,herbicidal activity,STEME (Stellaria media) [17]; pyroxasulfone solo 45 g ai/ha,45%
same,herbicidal activity,STEME (Stellaria media) [17]; pyroxasulfone solo 60 g ai/ha,80%
